Experimental data reported in patent US20240190876A1, “Tricyclic Urea Compounds As JAK2 V617F Inhibitors” (Incyte Corporation, priority 2022, published 2024).

Experiments:
[1] = In Vivo Pharmacokinetics, rat oral dosing; set-up: species or system Sprague Dawley rats; settings: male, Sprague Dawley, oral gavage 3.0 mg/kg, plasma, cassette dosing
Description: Test compounds were administered to male Sprague Dawley rats or male and female Cynomolgus monkeys intravenously or via oral gavage. For intravenous (IV) dosing, test compounds were dosed at 1 mg/kg using a formulation of 10% dimethylacetamide (DMAC), 10% propylene glycol (PG) in acidified saline via IV bolus for rat or 10 min IV infusion for monkey. For oral (PO) dosing, test compounds were dosed at 3.0 mg/kg using 5% DMAC in 0.5% methylcellulose in citrate buffer (pH -2.5). Blood samples were collected at predose and various time points up to 24 hours postdose. All blood samples were collected using EDTA as the anticoagulant and centrifuged to obtain plasma samples. The plasma concentrations of test compounds were determined by LC-MS/MS methods. The measured plasma concentrations were used to calculate PK parameters by standard noncompartmental methods using Phoenix© WinNonlin software program (version 8.0, Pharsight Corporation) or similar software. In rats and monkeys, cassette dosing of test compounds were conducted to obtain preliminary PK parameters. In vivo pharmacokinetic experiments with male beagle dogs may be performed under the conditions described above.

[2] = target: T1, pseudo-kinase domain (JH2) of human V617F mutant JAK2 (Homo sapiens, UniProt O60674, F794H/V617F/W659A/W777A); assay: JAK2 LanthaScreen JH2-V617F Binding Assay; settings: 50 nM JAK2-JH2 tracer, 1 hour at 25° C., read-out: JH2 V617F Bind IC50
T1 construct: pseudo-kinase domain (JH2, amino-acids 536-812 with 3 surface mutations W659A, W777A, F794H); His (C); purchased BPS Bioscience 79498; host or cells: baculovirus expression system
T1 sequence (O60674 536-812 V617F/W659A/W777A/F794H): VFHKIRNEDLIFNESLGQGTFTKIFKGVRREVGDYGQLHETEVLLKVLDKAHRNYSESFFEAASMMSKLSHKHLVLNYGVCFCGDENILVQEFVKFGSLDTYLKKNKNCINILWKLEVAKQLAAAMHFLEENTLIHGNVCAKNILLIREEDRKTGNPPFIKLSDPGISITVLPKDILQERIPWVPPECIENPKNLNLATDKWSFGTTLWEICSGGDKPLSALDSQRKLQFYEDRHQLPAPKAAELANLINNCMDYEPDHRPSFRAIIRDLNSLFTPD
Description: JAK2 JH2-V617F binding assay utilizes pseudo-kinase domain (JH2, amino-acids 536-812 with 3 surface mutations W659A, W777A, F794H) of human V617F mutant JAK2 expressed as C-terminal His-Avi-tagged, biotinylated protein in a baculovirus expression system (BPS Bioscience, Catalog #79498). The assay was conducted in black 384-well polystyrene plates in a final reaction volume of 20 μL. JAK2 JH2-V617F (0.26 nM) was incubated with compounds (100 nL serially diluted in DMSO) in the presence of 50 nM Fluorescent JAK2-JH2 Tracer (MedChem Express Catalog #HY-102055) and 0.25 nM Streptavidin-Tb cryptate (Cisbio Part #610SATLB) in assay buffer (50 mM Tris, pH=7.5, 10 mM MgCl2, 0.01% Brij-35, 0.1% BSA, 1 mM EGTA, 5% Glycerol and 5 mM DTT). Non-specific binding was accessed in the presence of 2 mM ATP. After incubation for 1 hour at 25° C., LanthaScreen signals were read on a PHERAstar FS plate reader (BMG LABTECH). Data was analyzed with IDBS XLfit and GraphPad Prism 5.0 software using a four parameter dose response curve to determine IC50 for each compound.

KIT [3] = assay: KIT Enzymatic Assay; assay type: biochemical; settings: ratio KIT IC50 / JH2 V617F binding IC50
Description: (§1) The kinase assays were carried out at room temperature in assay buffer (HEPES 50 mM, pH 7.0, NaN3 0.02%, BSA 0.01%, Orthovanadate 0.1 mM, DTT 1 mM, MgCl2 10 mM) in a final volume of 10 μL. Testing compounds were prepared by serial dilution in DMSO and transferred to the plate wells by ECHO liquid handler (Labcyte) with 0.5% DMSO in the final assay. […]. Reactions were initiated by the addition of 5 μL ATP in assay buffer. The final 10 μL kinase reaction consists of 0.12 nM KIT, 1 mM ATP, 500 nM TK Substrate-biotin and SEB reagent 62.5 nM in assay buffer. […] The plates were then sealed and centrifuged at 1800 rpm for 2 minutes. After 60 minutes incubation at room temperature, the product activity was determined by measuring the fluorescence at 620 nm and 665 nm on Pherastar microplate reader (BMG Labtech). A ratio is calculated (665/620 nm) for each well. Wells with DMSO only were served as the positive controls and wells containing no ATP were used as negative controls. IC50 determination was performed by fitting the curve of percent control activity versus the log of the compound concentration using the GraphPad Prism 7.0 software.

KIT [4] = target: KIT (Homo sapiens, UniProt P10721); assay: KIT Enzymatic Assay; assay type: biochemical; settings: HTRF kinase assay, 1 mM ATP
Chain of KIT (Homo sapiens, UniProt P10721) (P10721 26-976, species assumed): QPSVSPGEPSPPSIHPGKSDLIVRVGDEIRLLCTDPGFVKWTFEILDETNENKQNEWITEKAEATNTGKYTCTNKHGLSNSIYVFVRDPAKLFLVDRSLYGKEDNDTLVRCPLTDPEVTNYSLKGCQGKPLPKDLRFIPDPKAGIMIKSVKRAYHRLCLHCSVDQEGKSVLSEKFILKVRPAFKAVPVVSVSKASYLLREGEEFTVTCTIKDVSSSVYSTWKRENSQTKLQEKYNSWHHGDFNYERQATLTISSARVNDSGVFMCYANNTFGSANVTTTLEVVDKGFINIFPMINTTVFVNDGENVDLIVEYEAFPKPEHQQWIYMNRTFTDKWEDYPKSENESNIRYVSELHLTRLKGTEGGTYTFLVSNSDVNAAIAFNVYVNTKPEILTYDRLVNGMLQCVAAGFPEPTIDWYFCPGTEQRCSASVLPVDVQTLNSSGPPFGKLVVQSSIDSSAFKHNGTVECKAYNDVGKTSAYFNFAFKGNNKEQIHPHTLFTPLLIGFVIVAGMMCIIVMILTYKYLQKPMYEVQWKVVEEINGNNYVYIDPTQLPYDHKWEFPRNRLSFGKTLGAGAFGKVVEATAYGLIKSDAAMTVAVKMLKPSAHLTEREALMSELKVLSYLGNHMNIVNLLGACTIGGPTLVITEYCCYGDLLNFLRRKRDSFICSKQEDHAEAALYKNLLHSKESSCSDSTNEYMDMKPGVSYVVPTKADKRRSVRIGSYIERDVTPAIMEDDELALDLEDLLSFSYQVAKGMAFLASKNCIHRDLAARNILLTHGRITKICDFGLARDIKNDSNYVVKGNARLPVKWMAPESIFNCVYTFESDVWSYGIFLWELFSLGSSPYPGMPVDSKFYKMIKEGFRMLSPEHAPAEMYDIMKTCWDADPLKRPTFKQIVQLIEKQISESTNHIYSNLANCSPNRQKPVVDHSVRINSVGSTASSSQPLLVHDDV
Description: as §1

| SMILES | AUC [1] | IC50 [2] | Selectivity KIT/JH2 V617F (KIT [3]) | IC50 (KIT [4]) |
| --- | --- | --- | --- | --- |
| COc1ccc(-c2c(-c3cn(C)nc3OC)[nH]c3ncc4c(c23)n([C@H]2CC[C@@](C)(NC(=O)C3CC3)CC2)c(=O)n4C)cc1 [Example 1, N-((1s,4s)-4-(7-(3-Methoxy-1-methyl-1H-pyrazol-4-yl)-8-(4-methoxyphenyl)-3-methyl-2-oxo-3,6-dihydroimidazo[4,5-d]pyrrolo[2,3-b]pyridin-1(2H)-yl)-1-methylcyclohexyl)cyclopropanecarboxamide] | > 1500 nM·h | ≤ 0.01 µM | ****** (****** refers to selectivity of >12500-fold) | > 2.5 µM |
| [2H]C([2H])([2H])n1cc(-c2[nH]c3ncc4c(c3c2-c2ccc3c(cnn3C([2H])([2H])[2H])c2)n([C@H]2CC[C@@](C)(NC(=O)C3CC3)CC2)c(=O)n4C)c(F)n1 [Example 4, N-((1s,4s)-4-(7-(3-fluoro-1-(methyl-d3)-1H-pyrazol-4-yl)-3-methyl-8-(1-(methyl-d3)-1H-indazol-5-yl)-2-oxo-3,6-dihydroimidazo[4,5-d]pyrrolo[2,3-b]pyridin-1(2H)-yl)-1-methylcyclohexyl)cyclopropanecarboxamide] | ≤ 500 nM·h | ≤ 0.01 µM | **** (**** refers to selectivity of >1750-fold to ≤5000-fold) | 0.25 to 1.25 µM |
| [2H]C([2H])([2H])n1ncc2cc(-c3c(-c4cn(CC)nc4F)[nH]c4ncc5c(c34)n([C@H]3CC[C@@](C)(NC(=O)C4CC4)CC3)c(=O)n5C)ccc21 [Example 5, N-((1s,4s)-4-(7-(1-Ethyl-3-fluoro-1H-pyrazol-4-yl)-3-methyl-8-(1-(methyl-d3)-1H-indazol-5-yl)-2-oxo-3,6-dihydroimidazo[4,5-d]pyrrolo[2,3-b]pyridin-1(2H)-yl)-1-methylcyclohexyl)cyclopropanecarboxamide] | > 1500 nM·h | ≤ 0.01 µM | **** (**** refers to selectivity of >1750-fold to ≤5000-fold) | 0.25 to 1.25 µM |
| [2H]C([2H])([2H])n1cc(-c2[nH]c3ncc4c(c3c2-c2ccc(OC)cc2)n([C@H]2CC[C@@](C)(NC(=O)[C@H]3C[C@H]3F)CC2)c(=O)n4C([2H])([2H])[2H])c(F)n1 [Example 6, (1R,2R)-2-Fluoro-N-((1s,4S)-4-(7-(3-fluoro-1-(methyl-d3)-1H-pyrazol-4-yl)-8-(4-methoxyphenyl)-3-(methyl-d3)-2-oxo-3,6-dihydroimidazo[4,5-d]pyrrolo[2,3-b]pyridin-1(2H)-yl)-1-methylcyclohexyl)cyclopropane-1-carboxamide] | > 1500 nM·h | ≤ 0.01 µM | ***** (***** refers to selectivity of >5000-fold to ≤12500-fold) | 0.25 to 1.25 µM |
| [2H]C([2H])([2H])n1ncc2cc(-c3c(-c4cn(C)nc4OC)[nH]c4ncc5c(c34)n([C@H]3CC[C@@](C)(NC(=O)C4CC4)CC3)c(=O)n5C)ccc21 [Example 2, N-((1s,4s)-4-(7-(3-Methoxy-1-methyl-1H-pyrazol-4-yl)-3-methyl-8-(1-(methyl-d3)-1H-indazol-5-yl)-2-oxo-3,6-dihydroimidazo[4,5-d]pyrrolo[2,3-b]pyridin-1(2H)-yl)-1-methylcyclohexyl)cyclopropanecarboxamide] | 500 to 1500 nM·h | ≤ 0.01 µM | ****** (****** refers to selectivity of >12500-fold) | > 2.5 µM |
| [2H]C([2H])([2H])n1cc(-c2[nH]c3ncc4c(c3c2-c2ccc(OC)cc2)n([C@H]2CC[C@@](C)(NC(=O)C3CC3)CC2)c(=O)n4C)c(F)n1 [Example 3, N-((1s,4s)-4-(7-(3-fluoro-1-(methyl-d3)-1H-pyrazol-4-yl)-8-(4-methoxyphenyl)-3-methyl-2-oxo-3,6-dihydroimidazo[4,5-d]pyrrolo[2,3-b]pyridin-1(2H)-yl)-1-methylcyclohexyl)cyclopropanecarboxamide] | > 1500 nM·h | ≤ 0.01 µM | **** (**** refers to selectivity of >1750-fold to ≤5000-fold) | 0.25 to 1.25 µM |
